TGI and GI50 data for 10 molecules are collected here from PubChem BioAssay (NCI).

“And” between values parts separate entries of the source, which are not always exact repeats. Equal entries are not always repeated.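 Tested at 5 concentrations; 48 h exposure; 96-well plates; endpoints linearly interpolated, else capped at highest concentration. GI50: concentration for 50% inhibition of growth. TGI denotes the concentration required for complete inhibition of growth.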

Some test systems named below: CAKI-1 renal; M14 melanoma; NCI-H23 lung; OVCAR-5 ovarian; SK-MEL-5 melanoma; SN12C renal; SNB-75 CNS; SW-620 colon; UACC-257 melanoma; UACC-62 melanoma.
Holding throughout (experiment): inhibition of tumour cell growth, NCI panel, 48 h

In the case of `Nc1ccc(S(=O)(=O)NCc2nccs2)cc1`, the TGI with CAKI-1 renal was determined as 84.6 µM; with M14 melanoma it was 37.2 µM; with NCI-H23 lung it was 58.9 µM; in the experiment with OVCAR-5 ovarian, 35.7 µM; in the experiment with SK-MEL-5 melanoma, 29.6 µM; in the experiment with SN12C renal, 37.8 µM. Besides, the TGI with SNB-75 CNS was 58.8 µM; with SW-620 colon, > 100 µM; with UACC-257 melanoma it was 44.5 µM; in the experiment on UACC-62 melanoma, 41.8 µM.

With `CC[C@@]1(O)C(=O)OCc2c1cc1n(c2=O)Cc2cc3cc(N)ccc3nc2-1`, the GI50 is 0.00361 µM and 0.026 µM in the experiment on CAKI-1 renal; 0.0162 µM with M14 melanoma; 0.0195 µM and 0.11 µM in the experiment on OVCAR-5 ovarian; 0.0238 µM with SK-MEL-5 melanoma; 0.0142 µM with SN12C renal; 0.0113 µM and < 0.031 µM with SW-620 colon. Besides, the GI50 in the experiment with UACC-257 melanoma was 0.0441 µM and 0.0423 µM; with UACC-62 melanoma it was 0.00212 µM. In addition, the TGI is 1.62 µM and 1.21 µM in the experiment with CAKI-1 renal; 0.404 µM and 0.0409 µM with M14 melanoma; 0.0773 µM and 0.0247 µM with NCI-H23 lung; 0.109 µM and 0.627 µM in the experiment on OVCAR-5 ovarian; 0.195 µM and 0.0366 µM in the experiment on SK-MEL-5 melanoma; 0.243 µM and 0.123 µM in the experiment with SN12C renal. Moreover, the TGI is 0.364 µM and 0.0446 µM in the experiment on SNB-75 CNS; 5.06 µM with SW-620 colon; 0.642 µM and 0.375 µM in the experiment on UACC-257 melanoma; 0.0393 µM and < 0.021 µM in the experiment on UACC-62 melanoma.

On to `FCc1ncc(-c2ccc(C(F)(F)F)cc2)c(NC2CCCCCC2)n1`, for which the GI50 with CAKI-1 renal, with M14 melanoma, in the experiment on NCI-H23 lung, with OVCAR-5 ovarian, in the experiment on SK-MEL-5 melanoma and with SN12C renal was > 10 µM each time. The GI50 in the experiment with SNB-75 CNS, in the experiment on SW-620 colon, in the experiment with UACC-257 melanoma and with UACC-62 melanoma was > 10 µM throughout. The TGI in the experiment with CAKI-1 renal, with M14 melanoma, with NCI-H23 lung, in the experiment with OVCAR-5 ovarian, in the experiment with SK-MEL-5 melanoma and in the experiment with SN12C renal was > 10 µM throughout. Also, the TGI with SNB-75 CNS, with SW-620 colon, in the experiment with UACC-257 melanoma and in the experiment on UACC-62 melanoma was > 10 µM each time.

On to `O=C1NC2(CN3CCC2CC3)C(=O)N1CN(Cc1ccccc1)c1ccccc1` (stereo not given), for which the TGI with CAKI-1 renal, with M14 melanoma, with NCI-H23 lung, in the experiment with OVCAR-5 ovarian, in the experiment on SK-MEL-5 melanoma and in the experiment on SN12C renal was > 100 µM each time. Moreover, the TGI with SNB-75 CNS, with SW-620 colon, with UACC-257 melanoma and in the experiment with UACC-62 melanoma was > 100 µM throughout.

For `CC1(C)C2CCC3(C2)CS(=O)(=O)N2OC231` (stereo not given), the TGI turned out to be 30.4 µM with CAKI-1 renal; 30 µM with M14 melanoma; 33.4 µM in the experiment on NCI-H23 lung; 71.9 µM in the experiment with OVCAR-5 ovarian; 44.8 µM in the experiment on SK-MEL-5 melanoma; 31.6 µM with SN12C renal. Also, the TGI in the experiment with SNB-75 CNS is 36.5 µM; in the experiment on SW-620 colon, 32.9 µM; with UACC-257 melanoma it was 33.1 µM; with UACC-62 melanoma, 31.8 µM.

Regarding `CCN(CC)CCNc1n[n+]([O-])c2ccccc2[n+]1[O-]`, the GI50 was 2.89 µM and 6.81 µM in the experiment on CAKI-1 renal; 4.31 µM and 9.76 µM in the experiment on NCI-H23 lung; 4.07 µM and 14.8 µM with SNB-75 CNS; 8.39 µM and 3.54 µM with UACC-257 melanoma. Further, the TGI in the experiment with M14 melanoma was 21 µM and 28.7 µM; with NCI-H23 lung, 19 µM and 33.7 µM; in the experiment with OVCAR-5 ovarian, 38.6 µM and 35.8 µM; in the experiment with SK-MEL-5 melanoma, 4.86 µM and 3.31 µM; with SN12C renal, 19.1 µM and 18.9 µM; with SNB-75 CNS, 45.3 µM and 55.4 µM. Besides, the TGI with SW-620 colon is 82 µM and 55.9 µM; in the experiment on UACC-257 melanoma, 18.3 µM and 20.4 µM; in the experiment on UACC-62 melanoma, 22.2 µM and 21.2 µM.

Consider `CCN(CC)CCCC(C)Nc1c2ccc(C)cc2nc2ccc(OC)cc12` (stereo not given), for which the GI50 is 2.68 µM in the experiment on CAKI-1 renal; 1.58 µM with M14 melanoma; 1.84 µM in the experiment on NCI-H23 lung; 2.11 µM with OVCAR-5 ovarian; 1.65 µM with SK-MEL-5 melanoma; 3.12 µM in the experiment on SN12C renal. In addition, the GI50 with SNB-75 CNS was 1.37 µM; in the experiment with SW-620 colon, 0.709 µM; in the experiment with UACC-257 melanoma it was 1.62 µM; with UACC-62 melanoma it was 10.5 µM. For the same molecule, the TGI in the experiment with CAKI-1 renal is 8.98 µM; in the experiment with M14 melanoma, 3.18 µM; in the experiment with NCI-H23 lung, 5.86 µM; in the experiment on OVCAR-5 ovarian it was 21.6 µM; with SK-MEL-5 melanoma it was 3.03 µM; with SN12C renal, 55.1 µM. Further, the TGI worked out at 3.24 µM in the experiment with SNB-75 CNS, 10.2 µM in the experiment on SW-620 colon, 3.05 µM with UACC-257 melanoma and 27.9 µM in the experiment on UACC-62 melanoma.

Consider `O=[N+]([O-])c1nccn1COCCBr`, for which the TGI in the experiment with CAKI-1 renal, in the experiment with M14 melanoma, in the experiment on NCI-H23 lung, in the experiment on OVCAR-5 ovarian, with SK-MEL-5 melanoma and in the experiment on SN12C renal was > 100 µM in each case. Besides, the TGI with SNB-75 CNS, in the experiment with SW-620 colon, with UACC-257 melanoma and in the experiment on UACC-62 melanoma was > 100 µM in each case.

For `COC(=O)CCC1=C(C)/C(=C/c2[nH]c(-c3ccc[nH]3)cc2OC)N=C1C`, the GI50 is 0.346 µM with CAKI-1 renal; 0.42 µM in the experiment on M14 melanoma; 0.587 µM in the experiment with NCI-H23 lung; 1.04 µM in the experiment with OVCAR-5 ovarian; 0.0965 µM in the experiment with SK-MEL-5 melanoma; 2.35 µM in the experiment on SN12C renal. Further, the GI50 with SNB-75 CNS is 0.382 µM; in the experiment on SW-620 colon it was 0.333 µM; in the experiment with UACC-257 melanoma, 0.871 µM; in the experiment with UACC-62 melanoma, 0.295 µM. Further, the TGI in the experiment on CAKI-1 renal was 3.15 µM; with M14 melanoma, 1.8 µM; in the experiment on NCI-H23 lung it was 3.84 µM; in the experiment on OVCAR-5 ovarian, 12.9 µM; in the experiment on SK-MEL-5 melanoma, 0.248 µM; in the experiment on SN12C renal, 18.1 µM. In addition, the TGI in the experiment on SNB-75 CNS came out at 3.18 µM; in the experiment on SW-620 colon, 1.67 µM; with UACC-257 melanoma, 3.97 µM; in the experiment with UACC-62 melanoma, 0.894 µM.

As for `CN1C(=O)C(Cl)(C(Cl)(Cl)S(=O)(=O)O)C(=O)c2ccccc21` (stereo not given), the TGI in the experiment on CAKI-1 renal, with M14 melanoma, in the experiment on NCI-H23 lung, with SK-MEL-5 melanoma, in the experiment on SN12C renal and with SNB-75 CNS was > 100 µM throughout. Also, the TGI in the experiment with SW-620 colon, in the experiment on UACC-257 melanoma and with UACC-62 melanoma was > 100 µM each time.
